Measurements: patent publication US20230085307A1, “PYRIDAZINONE COMPOUND AND HERBICIDE” (NISSAN CHEMICAL CORPORATION, priority 2019, published 2023)

Legend:
[1] = system: barnyard grass; assay: Test Example 3: herbicidal effect by foliage application, Wagner pot (Table 18, symbol H); type: in vivo, barnyard grass (Echinochloa crus-galli); conditions: 320 g/ha
Procedure, shortened: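 Plants were sown in alluvial soil held under 0.1–0.5 cm standing water and grown 14 days in a greenhouse at 25–30 °C. An emulsifiable formulation, water-diluted to the set dose, was then sprayed onto the foliage, and effects were scored three weeks later using previously defined criteria.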

[2] = system: persian speedwell; assay: Test Example 5: herbicidal effect by foliage application, plastic box (Table 20, symbol R); type: in vivo, Persian speedwell (Veronica persica); conditions: foliage application, 320 g/ha, three weeks after application
Procedure, shortened: (§1)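 Post-emergence foliar test in sterilized diluvial soil. Compound applied as water-diluted emulsion at a predetermined rate to 14-day-old plants; evaluation at three weeks.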

[3] = system: Japanese bulrush; assay: Test Example 2: herbicidal activity, application during weed generation under submerged conditions (Table 17, symbol B); type: in vivo, Japanese bulrush (Schoenoplectus juncoides); conditions: AAH 320 g/ha; application during weed generation, submerged conditions
Procedure, shortened: (§2)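 Steps: fill Wagner pots with alluvial soil; add water to give 4 cm depth; sow the species mixed; grow under glass at 25–30° C.; at 1–2 leaves apply water-diluted emulsion formulation to the water surface at a fixed herbicide amount; score after 3 weeks.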

[4] = system: chickweed; assay: Test Example 5: herbicidal effect by foliage application, plastic box (Table 20, symbol P); type: in vivo, common chickweed (Stellaria media); conditions: foliage application, 320 g/ha, three weeks after application
Procedure, shortened: as §1

[5] = system: chickweed; assay: Test Example 4: herbicidal effect by soil treatment (Table 19, symbol P); type: in vivo, common chickweed (Stellaria media); conditions: amount of applied herbicide 320 g/ha
Procedure, shortened: (§3)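 Emulsion of test compound, water-diluted to predetermined amount, sprayed on soil after sowing (seed depth ~1.5 cm, sterilized diluvial soil). Greenhouse, 25–30° C. Effect graded at three weeks post-spray.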

[6] = system: lambsquarters; assay: Test Example 4: herbicidal effect by soil treatment (Table 19, symbol O); type: in vivo, lambsquarters (Chenopodium album); conditions: amount of applied herbicide 320 g/ha
Procedure, shortened: as §3

[7] = system: late watergrass; assay: Test Example 2: herbicidal activity, application during weed generation under submerged conditions (Table 17, symbol A); type: in vivo, late watergrass (Echinochloa oryzicola); conditions: AAH 320 g/ha; application during weed generation, submerged conditions
Procedure, shortened: as §2

[8] = system: barnyard grass; assay: Test Example 4: herbicidal effect by soil treatment (Table 19, symbol H); type: in vivo, barnyard grass (Echinochloa crus-galli); conditions: amount of applied herbicide 320 g/ha
Procedure, shortened: as §3

[9] = system: blackgrass; assay: Test Example 5: herbicidal effect by foliage application, plastic box (Table 20, symbol J); type: in vivo, blackgrass (Alopecurus myosuroides); conditions: foliage application, 320 g/ha, three weeks after application
Procedure, shortened: as §1

[10] = system: green foxtail; assay: Test Example 4: herbicidal effect by soil treatment (Table 19, symbol G); type: in vivo, green foxtail (Setaria viridis); conditions: amount of applied herbicide 320 g/ha
Procedure, shortened: as §3

[11] = system: redroot pigweed; assay: Test Example 5: herbicidal effect by foliage application, plastic box (Table 20, symbol N); type: in vivo, redroot pigweed (Amaranthus retroflexus); conditions: foliage application, 320 g/ha, three weeks after application
Procedure, shortened: as §1

[12] = system: Italian ryegrass; assay: Test Example 4: herbicidal effect by soil treatment (Table 19, symbol K); type: in vivo, Italian ryegrass (Lolium multiflorum); conditions: amount of applied herbicide 320 g/ha
Procedure, shortened: as §3

[13] = system: wild oat; assay: Test Example 4: herbicidal effect by soil treatment (Table 19, symbol I); type: in vivo, wild oat (Avena fatua); conditions: amount of applied herbicide 320 g/ha
Procedure, shortened: as §3

[14] = system: velvetleaf; assay: Test Example 4: herbicidal effect by soil treatment (Table 19, symbol M); type: in vivo, velvetleaf (Abutilon theophrasti); conditions: amount of applied herbicide 320 g/ha
Procedure, shortened: as §3

[15] = system: blackgrass; assay: Test Example 4: herbicidal effect by soil treatment (Table 19, symbol J); type: in vivo, blackgrass (Alopecurus myosuroides); conditions: amount of applied herbicide 320 g/ha
Procedure, shortened: as §3

[16] = system: velvetleaf; assay: Test Example 5: herbicidal effect by foliage application, plastic box (Table 20, symbol M); type: in vivo, velvetleaf (Abutilon theophrasti); conditions: foliage application, 320 g/ha, three weeks after application
Procedure, shortened: as §1

[17] = system: Italian ryegrass; assay: Test Example 5: herbicidal effect by foliage application, plastic box (Table 20, symbol K); type: in vivo, Italian ryegrass (Lolium multiflorum); conditions: foliage application, 320 g/ha, three weeks after application
Procedure, shortened: as §1

Compound: CCOc1ccc2c(-c3c(O)c(C)nn(C)c3=O)c(-c3ccccc3OC)sc2c1 [3-089]
- herbicidal effect on barnyard grass (H) [1]: 5 (Herbicidal rate of 90% or more (almost completely withered))
- R: persian speedwell, herbicidal effect grade [2]: 5 (Herbicidal rate of 90% or more (almost completely withered))
- herbicidal effect rating, B: Japanese bulrush [3]: 5 (Herbicidal rate of 90% or more (almost completely withered))
- P: chickweed, herbicidal effect grade [4]: 5 (Herbicidal rate of 90% or more (almost completely withered))
- P: chickweed, herbicidal effect grade [5]: 4 (Herbicidal rate of 70% or more and less than 90%)
- O: lambsquarters, herbicidal effect grade [6]: 4 (Herbicidal rate of 70% or more and less than 90%)
- herbicidal effect rating, A: late watergrass [7]: 4 (Herbicidal rate of 70% or more and less than 90%)
- H: barnyard grass, herbicidal effect grade [8]: 4 (Herbicidal rate of 70% or more and less than 90%)
- J: blackgrass, herbicidal effect grade [9]: 5 (Herbicidal rate of 90% or more (almost completely withered))
- G: green foxtail, herbicidal effect grade [10]: 4 (Herbicidal rate of 70% or more and less than 90%)
- N: redroot pigweed, herbicidal effect grade [11]: 5 (Herbicidal rate of 90% or more (almost completely withered))
- K: Italian ryegrass, herbicidal effect grade [12]: 4 (Herbicidal rate of 70% or more and less than 90%)
- I: wild oat, herbicidal effect grade [13]: 1 (Herbicidal rate of 5% or more and less than 20%)
- M: velvetleaf, herbicidal effect grade [14]: 0 (Herbicidal rate of 5% or less (almost no effect))
- J: blackgrass, herbicidal effect grade [15]: 4 (Herbicidal rate of 70% or more and less than 90%)
- M: velvetleaf, herbicidal effect grade [16]: 5 (Herbicidal rate of 90% or more (almost completely withered))
- K: Italian ryegrass, herbicidal effect grade [17]: 5 (Herbicidal rate of 90% or more (almost completely withered))

Compound: CCOc1ccc2c(-c3c(O)c(C)nn(C)c3=O)c(-c3ccccc3OCC)sc2c1 [3-093]
- herbicidal effect on barnyard grass (H) [1]: 5 (Herbicidal rate of 90% or more (almost completely withered))
- R: persian speedwell, herbicidal effect grade [2]: 5 (Herbicidal rate of 90% or more (almost completely withered))
- herbicidal effect rating, B: Japanese bulrush [3]: 5 (Herbicidal rate of 90% or more (almost completely withered))
- P: chickweed, herbicidal effect grade [4]: 5 (Herbicidal rate of 90% or more (almost completely withered))
- P: chickweed, herbicidal effect grade [5]: 4 (Herbicidal rate of 70% or more and less than 90%)
- O: lambsquarters, herbicidal effect grade [6]: 4 (Herbicidal rate of 70% or more and less than 90%)
- herbicidal effect rating, A: late watergrass [7]: 3 (Herbicidal rate of 40% or more and less than 70%)
- H: barnyard grass, herbicidal effect grade [8]: 4 (Herbicidal rate of 70% or more and less than 90%)
- J: blackgrass, herbicidal effect grade [9]: 4 (Herbicidal rate of 70% or more and less than 90%)
- G: green foxtail, herbicidal effect grade [10]: 5 (Herbicidal rate of 90% or more (almost completely withered))
- N: redroot pigweed, herbicidal effect grade [11]: 5 (Herbicidal rate of 90% or more (almost completely withered))
- K: Italian ryegrass, herbicidal effect grade [12]: 4 (Herbicidal rate of 70% or more and less than 90%)
- I: wild oat, herbicidal effect grade [13]: 3 (Herbicidal rate of 40% or more and less than 70%)
- M: velvetleaf, herbicidal effect grade [14]: 3 (Herbicidal rate of 40% or more and less than 70%)
- J: blackgrass, herbicidal effect grade [15]: 3 (Herbicidal rate of 40% or more and less than 70%)
- M: velvetleaf, herbicidal effect grade [16]: 5 (Herbicidal rate of 90% or more (almost completely withered))
- K: Italian ryegrass, herbicidal effect grade [17]: 5 (Herbicidal rate of 90% or more (almost completely withered))
